In brackets after ≈: the same amount, converted by molar mass. Read-outs that look alike come from different tables or passages of the source.
What was measured:
[1] = target: T1, S. cerevisiae/SIII (S. cerevisiae strain, S. cerevisiae eEF2) (Saccharomyces cerevisiae, UniProt P32324); assay: SwordIII growth inhibition assay, S. cerevisiae/SIII strain; assay type: cell-based
T1 construct: expressed in transfected cells; host or cells: S. cerevisiae Δeft1 Δeft2 deletion strain YEFD12h
Source text: (§1) Sordarin and its derivatives bind to the eEF2-ribosome-nucleotide complex in sensitive fungi. Through different in vitro assays using purified components from human, yeast and plant cells, it has been shown that the selective sensitivity to sordarin and its derivatives is dependent on fungal eEF2. The fungal specificity of the sordarin makes eEF2 an attractive anti-infective target. (J Biol Chem. 1998, Feb 6; 273(6):3148-51).
(§2) Specifically, natural products are screened which show a differential activity between the human control and the other strains, although a 100% differential is not required in the initial discovery effort. It may be possible to observe hits solely against the fungal eEF2s, and/or the protozoal eEF2s. In sum, SWORDIII is designed to identify inhibitors of fungal and protozoal eEF2s to provide opportunities for developing anti-infective agents with a unique and selective mechanism of action.
(§3) For this reason, the eEF2 encoding genes from different organisms and several species of pathogenic fungi have been cloned, characterized and expressed in S. cerevisiae at Merck Research Laboratory, as previously described (Microbiology 147:383-90, 2001). Site directed mutagenesis of the C. parapsilosis gene encoding eEF2 to create S521Y, N523S single mutants and the S521Y, N523S double mutant was accomplished by the PCR overlap extension technique (Gene 77:51-59, 1989). […]

[2] = target: T2, C. glabrata/SIII (S. cerevisiae strain expressing C. glabrata eEF2) (Candida glabrata, UniProt Q6FYA7); assay: SwordIII growth inhibition assay, C. glabrata/SIII strain; assay type: cell-based
T2 construct: S. cerevisiae strains expressing full length heterologous eEF2s; expressed in transfected cells; host or cells: S. cerevisiae Δeft1 Δeft2 deletion strain YEFD12h
Source text: as §1, §2, §3

[3] = target: Human/SIII (S. cerevisiae strain expressing human eEF2) (UniProt P13639, cells depend on it, species not given); assay: SwordIII growth inhibition assay, Human/SIII strain; assay type: cell-based
Source text: as §1, §2, §3

[4] = target: C. krusei/SIII (S. cerevisiae strain expressing C. krusei eEF2) (Pichia kudriavzevii, UniProt A0A2U9R6P9); assay: SwordIII growth inhibition assay, C. krusei/SIII strain; assay type: cell-based
Source text: as §1, §2, §3

[5] = target: C. lusitaniae/SIII (S. cerevisiae strain expressing C. lusitaniae eEF2) (Clavispora lusitaniae, UniProt C4YCF8); assay: SwordIII growth inhibition assay, C. lusitaniae/SIII strain; assay type: cell-based
Source text: as §1, §2, §3

[6] = target: C. neoformans/SIII (S. cerevisiae strain expressing C. neoformans eEF2) (Cryptococcus neoformans, UniProt Q9HFZ8); assay: SwordIII growth inhibition assay, C. neoformans/SIII strain; assay type: cell-based
Source text: as §1, §2, §3

[7] = target: A. fumigatus/SIII (S. cerevisiae strain expressing A. fumigatus eEF2) (Aspergillus fumigatus, UniProt Q4X0G7); assay: SwordIII growth inhibition assay, A. fumigatus/SIII strain; assay type: cell-based
Source text: as §1, §2, §3

[8] = target: E. tenella/SIII (S. cerevisiae strain expressing E. tenella eEF2) (Eimeria tenella, UniProt A0A184W4F4); assay: SwordIII growth inhibition assay, E. tenella/SIII strain; assay type: cell-based
Source text: as §1, §2, §3

[9] = test system: S. cerevisiae in vitro translation; assay: In vitro translation assay, S. cerevisiae; assay type: biochemical; details: average of three independent experiments, lower limit of sensitivity about 0.005 μg/ml
Method: (§4) In vitro translation assays were performed as described in Shastry, et al. Microbiology, 2001, 147(2):383-90. The IC50 values are the average of three independent experiments. The lower limit of sensitivity is about 0.005 μg/ml.

[10] = test system: C. albicans in vitro translation; assay: In vitro translation assay, C. albicans; assay type: biochemical; details: average of three independent experiments, lower limit of sensitivity about 0.005 μg/ml
Method: as §4

[11] = test system: C. glabrata in vitro translation; assay: In vitro translation assay, C. glabrata; assay type: biochemical; details: average of three independent experiments
Method: as §4

[12] = test system: C. lusitaniae in vitro translation; assay: In vitro translation assay, C. lusitaniae; assay type: biochemical; details: average of three independent experiments
Method: as §4

[13] = test system: C. parapsilosis in vitro translation; assay: In vitro translation assay, C. parapsilosis; assay type: biochemical; details: average of three independent experiments
Method: as §4

[14] = test system: C. krusei in vitro translation; assay: In vitro translation assay, C. krusei; assay type: biochemical; details: average of three independent experiments
Method: as §4

[15] = test system: C. guilliermondi in vitro translation; assay: In vitro translation assay, C. guilliermondi; assay type: biochemical; details: average of three independent experiments, lower limit of sensitivity about 0.005 μg/ml
Method: as §4

[16] = test system: C. neoformans in vitro translation; assay: In vitro translation assay, C. neoformans; assay type: biochemical; details: average of three independent experiments
Method: as §4

[17] = test system: A. nidulans in vitro translation; assay: In vitro translation assay, A. nidulans; assay type: biochemical; details: average of three independent experiments
Method: as §4

[18] = SC medium, 29° C., approximately 16 hours, read-out: IC50 (μg/ml)
[19] = read-out: IC50 (μg/ml), SC medium, 29° C., approximately 16 hours

T1 sequence (P32324 whole entry): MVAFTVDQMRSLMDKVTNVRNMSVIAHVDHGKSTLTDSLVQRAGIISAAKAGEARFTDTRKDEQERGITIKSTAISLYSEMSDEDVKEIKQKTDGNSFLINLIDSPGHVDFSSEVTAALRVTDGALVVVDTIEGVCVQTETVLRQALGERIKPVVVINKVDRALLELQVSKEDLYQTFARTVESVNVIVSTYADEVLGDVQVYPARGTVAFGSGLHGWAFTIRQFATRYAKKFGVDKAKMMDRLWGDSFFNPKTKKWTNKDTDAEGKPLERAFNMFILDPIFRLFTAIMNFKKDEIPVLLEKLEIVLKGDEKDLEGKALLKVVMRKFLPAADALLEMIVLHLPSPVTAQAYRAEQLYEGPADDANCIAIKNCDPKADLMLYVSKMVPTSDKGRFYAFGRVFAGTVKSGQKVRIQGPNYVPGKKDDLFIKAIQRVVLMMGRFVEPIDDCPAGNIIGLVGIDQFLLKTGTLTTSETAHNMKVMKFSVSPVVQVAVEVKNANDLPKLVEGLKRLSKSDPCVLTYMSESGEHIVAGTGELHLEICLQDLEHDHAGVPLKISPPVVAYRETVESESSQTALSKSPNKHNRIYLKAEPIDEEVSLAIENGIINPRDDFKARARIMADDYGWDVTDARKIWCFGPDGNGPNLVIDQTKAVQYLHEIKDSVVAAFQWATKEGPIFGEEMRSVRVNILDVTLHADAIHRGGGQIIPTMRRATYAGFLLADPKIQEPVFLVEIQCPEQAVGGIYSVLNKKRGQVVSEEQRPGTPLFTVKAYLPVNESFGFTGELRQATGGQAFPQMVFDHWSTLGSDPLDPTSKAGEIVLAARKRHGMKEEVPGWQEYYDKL
C. krusei/SIII (S. cerevisiae strain expressing C. krusei eEF2), sequence (A0A2U9R6P9 1-830, change not shown): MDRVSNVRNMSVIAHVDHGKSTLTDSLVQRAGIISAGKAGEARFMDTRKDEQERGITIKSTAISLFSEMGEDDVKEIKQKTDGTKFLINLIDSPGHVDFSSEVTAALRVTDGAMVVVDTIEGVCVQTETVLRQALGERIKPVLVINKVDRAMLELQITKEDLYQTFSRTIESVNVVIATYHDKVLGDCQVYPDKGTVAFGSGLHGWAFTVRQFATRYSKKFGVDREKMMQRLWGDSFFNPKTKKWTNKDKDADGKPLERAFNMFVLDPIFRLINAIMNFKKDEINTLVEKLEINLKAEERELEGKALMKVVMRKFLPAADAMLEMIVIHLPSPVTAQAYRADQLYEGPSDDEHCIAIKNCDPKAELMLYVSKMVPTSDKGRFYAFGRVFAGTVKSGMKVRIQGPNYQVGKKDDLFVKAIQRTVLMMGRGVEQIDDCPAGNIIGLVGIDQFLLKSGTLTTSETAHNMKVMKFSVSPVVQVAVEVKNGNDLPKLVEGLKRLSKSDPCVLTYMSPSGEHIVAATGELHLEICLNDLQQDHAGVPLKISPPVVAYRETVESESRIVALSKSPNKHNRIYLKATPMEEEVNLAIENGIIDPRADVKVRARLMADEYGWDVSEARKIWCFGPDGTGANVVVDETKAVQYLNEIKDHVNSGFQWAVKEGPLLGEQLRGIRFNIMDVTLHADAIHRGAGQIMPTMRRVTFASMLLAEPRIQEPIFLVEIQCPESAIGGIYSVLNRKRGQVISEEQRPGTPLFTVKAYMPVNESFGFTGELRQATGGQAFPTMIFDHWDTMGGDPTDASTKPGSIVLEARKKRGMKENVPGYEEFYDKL
C. lusitaniae/SIII (S. cerevisiae strain expressing C. lusitaniae eEF2), sequence (C4YCF8 1-830, change not shown): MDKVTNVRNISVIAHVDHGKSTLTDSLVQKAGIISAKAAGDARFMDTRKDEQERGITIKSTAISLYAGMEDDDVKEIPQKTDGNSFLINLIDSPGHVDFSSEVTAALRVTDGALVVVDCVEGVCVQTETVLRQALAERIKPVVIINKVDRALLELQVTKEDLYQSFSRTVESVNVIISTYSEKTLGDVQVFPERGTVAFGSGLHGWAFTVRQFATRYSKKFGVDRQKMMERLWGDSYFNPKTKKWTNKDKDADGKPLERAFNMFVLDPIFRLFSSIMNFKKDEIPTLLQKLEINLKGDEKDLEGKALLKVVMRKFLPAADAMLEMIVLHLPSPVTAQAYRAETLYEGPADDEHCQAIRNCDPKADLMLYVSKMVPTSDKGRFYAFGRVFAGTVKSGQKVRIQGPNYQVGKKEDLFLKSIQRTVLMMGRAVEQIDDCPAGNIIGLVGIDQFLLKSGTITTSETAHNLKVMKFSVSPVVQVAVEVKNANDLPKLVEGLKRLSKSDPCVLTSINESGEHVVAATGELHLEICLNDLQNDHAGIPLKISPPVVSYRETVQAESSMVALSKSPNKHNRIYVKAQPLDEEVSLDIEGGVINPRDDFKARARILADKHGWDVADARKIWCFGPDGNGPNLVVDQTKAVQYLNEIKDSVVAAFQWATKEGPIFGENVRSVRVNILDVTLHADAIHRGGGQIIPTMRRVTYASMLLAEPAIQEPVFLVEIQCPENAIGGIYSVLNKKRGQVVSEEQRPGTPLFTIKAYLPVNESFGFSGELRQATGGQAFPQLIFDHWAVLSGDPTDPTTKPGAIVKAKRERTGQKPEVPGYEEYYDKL
A. fumigatus/SIII (S. cerevisiae strain expressing A. fumigatus eEF2), sequence (Q4X0G7 1-839, change not shown): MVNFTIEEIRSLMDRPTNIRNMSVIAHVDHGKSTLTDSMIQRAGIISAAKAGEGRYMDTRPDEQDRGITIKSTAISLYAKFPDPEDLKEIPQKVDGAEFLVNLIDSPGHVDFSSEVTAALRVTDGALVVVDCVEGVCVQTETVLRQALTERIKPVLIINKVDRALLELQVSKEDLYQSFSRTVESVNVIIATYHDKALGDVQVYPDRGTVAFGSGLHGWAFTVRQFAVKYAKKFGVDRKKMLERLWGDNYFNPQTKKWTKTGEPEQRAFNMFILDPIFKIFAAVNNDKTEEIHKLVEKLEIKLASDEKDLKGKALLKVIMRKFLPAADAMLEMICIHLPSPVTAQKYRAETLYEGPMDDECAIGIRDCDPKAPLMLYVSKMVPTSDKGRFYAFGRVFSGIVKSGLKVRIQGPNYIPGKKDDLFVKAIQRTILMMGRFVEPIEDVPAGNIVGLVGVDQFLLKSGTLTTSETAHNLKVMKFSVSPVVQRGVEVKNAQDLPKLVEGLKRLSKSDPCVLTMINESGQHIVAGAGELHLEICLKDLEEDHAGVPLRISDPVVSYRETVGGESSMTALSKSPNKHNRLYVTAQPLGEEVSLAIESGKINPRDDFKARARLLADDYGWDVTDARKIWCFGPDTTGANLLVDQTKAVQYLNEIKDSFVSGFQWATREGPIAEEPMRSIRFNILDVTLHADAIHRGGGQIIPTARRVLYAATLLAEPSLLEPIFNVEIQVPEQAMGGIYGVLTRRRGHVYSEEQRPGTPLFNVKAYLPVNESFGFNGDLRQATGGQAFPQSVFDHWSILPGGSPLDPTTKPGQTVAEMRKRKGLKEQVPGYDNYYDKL
C. neoformans/SIII (S. cerevisiae strain expressing C. neoformans eEF2), sequence (Q9HFZ8 1-838, change not shown): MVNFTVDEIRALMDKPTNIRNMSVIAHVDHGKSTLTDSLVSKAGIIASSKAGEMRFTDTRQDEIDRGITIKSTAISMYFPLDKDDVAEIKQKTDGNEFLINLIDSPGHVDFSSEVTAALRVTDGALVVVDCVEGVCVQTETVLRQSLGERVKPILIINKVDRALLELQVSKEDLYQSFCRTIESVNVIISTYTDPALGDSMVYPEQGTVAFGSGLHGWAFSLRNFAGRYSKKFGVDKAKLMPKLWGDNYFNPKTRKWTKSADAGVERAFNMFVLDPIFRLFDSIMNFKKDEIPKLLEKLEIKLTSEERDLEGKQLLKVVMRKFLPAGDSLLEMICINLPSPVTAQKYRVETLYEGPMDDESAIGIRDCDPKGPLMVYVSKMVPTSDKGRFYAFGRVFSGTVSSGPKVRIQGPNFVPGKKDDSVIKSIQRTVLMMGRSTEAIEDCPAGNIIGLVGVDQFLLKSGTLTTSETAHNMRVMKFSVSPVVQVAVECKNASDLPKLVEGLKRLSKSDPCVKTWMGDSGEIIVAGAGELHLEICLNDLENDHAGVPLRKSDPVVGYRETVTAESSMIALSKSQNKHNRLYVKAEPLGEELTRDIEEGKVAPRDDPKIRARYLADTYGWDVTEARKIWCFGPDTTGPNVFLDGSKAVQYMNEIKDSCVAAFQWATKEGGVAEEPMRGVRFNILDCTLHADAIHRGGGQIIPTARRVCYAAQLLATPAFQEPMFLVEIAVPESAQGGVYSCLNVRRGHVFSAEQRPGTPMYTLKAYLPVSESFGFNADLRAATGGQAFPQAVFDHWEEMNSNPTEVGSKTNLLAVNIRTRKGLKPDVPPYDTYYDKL
E. tenella/SIII (S. cerevisiae strain expressing E. tenella eEF2), sequence (A0A184W4F4 1-832, change not shown): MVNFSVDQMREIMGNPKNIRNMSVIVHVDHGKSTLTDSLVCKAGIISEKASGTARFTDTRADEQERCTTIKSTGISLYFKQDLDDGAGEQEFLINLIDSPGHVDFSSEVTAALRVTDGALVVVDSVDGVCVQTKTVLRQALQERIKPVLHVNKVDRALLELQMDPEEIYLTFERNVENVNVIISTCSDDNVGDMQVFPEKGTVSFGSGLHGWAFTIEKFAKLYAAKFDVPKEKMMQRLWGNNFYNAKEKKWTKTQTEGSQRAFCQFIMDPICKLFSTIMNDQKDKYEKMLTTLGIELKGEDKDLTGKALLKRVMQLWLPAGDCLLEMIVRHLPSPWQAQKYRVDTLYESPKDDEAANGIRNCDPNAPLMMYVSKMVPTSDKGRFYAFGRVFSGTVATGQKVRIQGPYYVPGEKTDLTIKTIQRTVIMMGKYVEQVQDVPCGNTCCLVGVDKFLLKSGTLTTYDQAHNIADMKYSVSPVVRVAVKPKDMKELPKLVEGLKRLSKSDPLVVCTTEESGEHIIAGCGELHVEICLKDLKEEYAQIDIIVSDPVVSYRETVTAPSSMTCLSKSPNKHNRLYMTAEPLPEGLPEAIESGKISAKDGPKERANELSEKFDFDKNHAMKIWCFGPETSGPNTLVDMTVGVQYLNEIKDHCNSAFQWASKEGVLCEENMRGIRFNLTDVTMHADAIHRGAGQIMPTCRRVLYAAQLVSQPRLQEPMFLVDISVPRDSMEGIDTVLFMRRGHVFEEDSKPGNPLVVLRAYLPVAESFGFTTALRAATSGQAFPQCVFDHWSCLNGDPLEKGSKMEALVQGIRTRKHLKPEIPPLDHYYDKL

| SMILES | IC50 [1] [µM] | IC50 [2] [µM] | IC50 [9] [µg/mL] | IC50 [10] [µg/mL] | IC50 [11] [µg/mL] | IC50 [12] [µg/mL] | IC50 [13] [µg/mL] | IC50 [14] [µg/mL] | IC50 [15] [µg/mL] | IC50 [16] [µg/mL] | IC50 [17] [µg/mL] | other results |
| --- | --- | --- | --- | --- | --- | --- | --- | --- | --- | --- | --- | --- |
| CO[C@H]1[C@@H](O)[C@H](O)[C@H](OC[C@@]23C[C@@H]4[C@H](C)CC[C@H]4[C@@]4(C=O)CC2C=C(C(C)C)[C@@]34C(=O)O)O[C@@H]1C [Sordarin] | 0.386 | 12.7 | 0.006 (≈ 0.0122 µM) | 0.006 (≈ 0.0122 µM) | 0.036 (≈ 0.0731 µM) | >100 | >100 | >100 | 0.01 (≈ 0.0203 µM) | 0.2 (≈ 0.406 µM) | 2.6 (≈ 5.28 µM) | GI50 [3, 18]: > 203 µM; IC50 [4, 18]: > 203 µM; IC50 [5, 18]: > 203 µM; IC50 [6, 18]: > 203 µM; IC50 [7, 18]: > 203 µM; IC50 [8, 18]: > 203 µM |
| COC1C(C)OC(OCC23CC4C(C)CCC4C4(C=O)CC2C=C(C(C)C)C43C(=O)O)C(O)C12OC(=O)C(CCCCCCCC(=O)O)O2 (stereo not shown) [The Compound of Formula I] | 0.217 | 7.24 | 0.006 | 0.006 | 0.015 | 0.5 | 0.5 | 1 | 0.006 | 0.02 | 0.6 | GI50 [3, 19]: > 29 µM; IC50 [4, 19]: 21.7 µM; IC50 [5, 19]: > 29 µM; IC50 [6, 19]: 7.24 µM; IC50 [7, 19]: 29 µM; IC50 [8, 19]: > 29 µM |

— US20040242904A1, “Novel sordarin derivative isolated from culture fermentations and functions as an antifungal agent” (priority 2001, published 2004)
